Results on four molecules are retold here after patent US20060074255A1, “3-Methyl-20-epi-vitamin D derivatives” (priority 2000, published 2006).

In this experiment the target is T1, bovine thymus vitamin D receptor (Bos taurus, UniProt Q28037).
T1 construct: Bovine thymus 1α,25-dihydroxyvitamin D3 receptor was purchased from Yamasa Biochemcal; purchased Yamasa Biochemcal (Choshi, Chiba, Japan) lot; 112631; host or cells: bovine thymus (tissue preparation)
T1 sequence (Q28037 1-426): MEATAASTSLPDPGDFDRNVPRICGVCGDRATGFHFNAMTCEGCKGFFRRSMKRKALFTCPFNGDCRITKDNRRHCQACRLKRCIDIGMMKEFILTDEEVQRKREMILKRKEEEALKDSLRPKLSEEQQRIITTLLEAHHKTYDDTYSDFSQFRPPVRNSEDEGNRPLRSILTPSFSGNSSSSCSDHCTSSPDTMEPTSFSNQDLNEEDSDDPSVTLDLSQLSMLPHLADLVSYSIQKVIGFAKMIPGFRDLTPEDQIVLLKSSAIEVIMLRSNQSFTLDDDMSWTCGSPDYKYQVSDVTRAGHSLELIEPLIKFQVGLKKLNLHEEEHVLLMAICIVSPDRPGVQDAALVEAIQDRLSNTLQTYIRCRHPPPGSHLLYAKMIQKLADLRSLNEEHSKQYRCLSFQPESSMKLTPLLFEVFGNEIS
The experiment is described as follows: Assay for Binding to Bovine Thymus Vitamin D Receptor (VDR). The note with it: relative value with 1α,25-dihydroxyvitamin D3 taken as 100; X=(y/x)×100 from concentrations inhibiting 50% of [3H]-1α,25-dihydroxyvitamin D3 binding to VDR. The method, then: Assay for Binding to Bovine Thymus Vitamin D Receptor (VDR)
Compounds 14, 16, 19 and 21 synthesized in the above Examples 1 to 4 were tested for their binding properties to bovine thymus vitamin D receptor.
Ethanol solutions of 1α,25-dihydroxyvitamin D3 (the standard substance) and Compounds 14, 16, 19 and 21 were prepared at various concentrations. Bovine thymus 1α,25-dihydroxyvitamin D3 receptor was purchased from Yamasa Biochemcal (Choshi, Chiba, Japan) (lot. 112631) and, just before use, one ampule (approximately 25 mg) of the receptor was dissolved in 55 mL of 0.05 M phosphate buffer (pH 7.4) containing 0.3M KCl and 5 mM dithiothreitol.
Each of the ethanol solutions (50 μl) of the test compounds and 1α,25-dihydroxyvitamin D3 was put into a respective tube with 500 μl (0.23 mg protein) of the receptor solution, pre-incubated at 25° C. for 1 hour, and [^3H]-1α,25-dihydroxyvitamin D3 was added at the final concentration of 0.1 nM, followed by incubation overnight at 4° C. Each of the reaction mixtures was mixed with DCC (dextran coated charcoal), left for 30 minutes at 4° C. and centrifuged at 3000 rpm for ten minutes to separate the bound and free forms of [^3H]-1α,25-dihydroxyvitamin D3. Each of the resultant supernatants (500 μl) was mixed with ACS-II (9.5 ml) (AMERSHAM, England) for radioactivity measurement.
The binding properties of the test compounds expressed in relative value with that of 1α,25-dihydroxyvitamin D3 taken as 100 were shown in Table below. The values were calculated according to the following equation. X=(y/x)×100 • X: relative VDR binding property of a test compound • y: concentration of 1α,25-dihydroxyvitamin D3 that inhibits 50% of the binding of [^3H]-1α,25-dihydroxyvitamin D3 and VDR
x: concentration of the test compound that inhibits 50% of the binding of [^3H]-1α,25-dihydroxyvitamin D3 and VDR
With `C=C1/C(=C\C=C2/CCC[C@@]3(C)C2CCC3[C@@H](C)CCCC(C)(C)O)C[C@@](C)(O)C[C@H]1O` (stereo partly drawn) [Compound 14, (5Z,7E)-(1R,3R,20S)-3-methyl-9,10-seco-5,7,10(19)-cholestatriene-1,3,25-triol], the VDR binding properties is given as 0.035.
As to `C=C1/C(=C\C=C2/CCC[C@@]3(C)C2CCC3[C@@H](C)CCCC(C)(C)O)C[C@@](C)(O)C[C@@H]1O` (stereo partly drawn) [Compound 16, (5Z,7E)-(1S,3R,20S)-3-methyl-9,10-seco-5,7,10(19)-cholestatriene-1,3,25-triol], the VDR binding properties is reported as 70.
Take `C=C1/C(=C\C=C2/CCC[C@@]3(C)C2CCC3[C@@H](C)CCCC(C)(C)O)C[C@](C)(O)C[C@@H]1O` (stereo partly drawn) [Compound 19, (5Z,7E)-(lS,3S,20S)-3-methyl-9,10-seco-5,7,10(19)-cholestatriene-1,3,25-triol]: the VDR binding properties is recorded as 0.24.
The figure for `C=C1/C(=C\C=C2/CCC[C@@]3(C)C2CCC3[C@@H](C)CCCC(C)(C)O)C[C@](C)(O)C[C@H]1O` (stereo partly drawn) [Compound 21, (5Z,7E)-(1R,3S,20S)-3-Methyl-9,10-seco-5,7,10(19)-cholestatriene-1,3,25-triol] is less than 0.01.
